Test results from patent US20150065470A1, “Steroid Sulfatase Inhibitor Regimen for the Treatment of Endometriosis” (priority 2012, published 2015).

How the values were obtained:
[1] = molecular target: T1, STS activity in PBMCs (Homo sapiens, UniProt P08842); experiment: STS activity in PBMCs, Example 2 (LC-MS/MS); type: in vivo; details: E2MATE 4 mg weekly and/or NETA 10 mg daily for 4 weeks
T1 construct: Pharmacodynamic properties were investigated by assessment of the STS activity in PBMCs; endogenous in cells; host or cells: peripheral blood mononuclear cells (PBMCs) of dosed women
T1 sequence (P08842 22-583): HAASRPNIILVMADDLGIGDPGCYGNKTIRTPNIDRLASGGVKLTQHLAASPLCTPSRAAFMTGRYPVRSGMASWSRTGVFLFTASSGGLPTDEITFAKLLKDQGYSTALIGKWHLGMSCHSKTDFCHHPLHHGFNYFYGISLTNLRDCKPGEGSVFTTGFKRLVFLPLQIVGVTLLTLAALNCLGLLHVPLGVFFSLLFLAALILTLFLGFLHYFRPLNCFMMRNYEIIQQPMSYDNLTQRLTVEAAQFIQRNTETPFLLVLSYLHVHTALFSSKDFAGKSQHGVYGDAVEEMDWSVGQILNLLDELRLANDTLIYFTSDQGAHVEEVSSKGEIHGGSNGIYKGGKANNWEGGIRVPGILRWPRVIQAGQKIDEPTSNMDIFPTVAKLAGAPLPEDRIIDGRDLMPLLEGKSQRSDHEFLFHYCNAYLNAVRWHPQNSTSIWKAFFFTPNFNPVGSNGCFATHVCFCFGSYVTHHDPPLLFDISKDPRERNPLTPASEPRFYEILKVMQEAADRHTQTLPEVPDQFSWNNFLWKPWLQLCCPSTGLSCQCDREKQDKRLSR
Protocol: STS activity was determined by spiking specimens with labelled E1-S and by measuring its conversion to E1 per gram protein under standardized incubation conditions using LC-MS/MS. Protein concentration was evaluated with a validated colorimetric assay (Bradford method).

[2] = molecular target: T2, STS activity in the uterus or in induced lesions (Mus musculus, UniProt P50427); details: highest dose (1 mg/kg daily oral, 21 days); cited from earlier work
T2 construct: host or cells: mouse uterus or induced endometriosis-like lesions
T2 sequence (P50427 23-624): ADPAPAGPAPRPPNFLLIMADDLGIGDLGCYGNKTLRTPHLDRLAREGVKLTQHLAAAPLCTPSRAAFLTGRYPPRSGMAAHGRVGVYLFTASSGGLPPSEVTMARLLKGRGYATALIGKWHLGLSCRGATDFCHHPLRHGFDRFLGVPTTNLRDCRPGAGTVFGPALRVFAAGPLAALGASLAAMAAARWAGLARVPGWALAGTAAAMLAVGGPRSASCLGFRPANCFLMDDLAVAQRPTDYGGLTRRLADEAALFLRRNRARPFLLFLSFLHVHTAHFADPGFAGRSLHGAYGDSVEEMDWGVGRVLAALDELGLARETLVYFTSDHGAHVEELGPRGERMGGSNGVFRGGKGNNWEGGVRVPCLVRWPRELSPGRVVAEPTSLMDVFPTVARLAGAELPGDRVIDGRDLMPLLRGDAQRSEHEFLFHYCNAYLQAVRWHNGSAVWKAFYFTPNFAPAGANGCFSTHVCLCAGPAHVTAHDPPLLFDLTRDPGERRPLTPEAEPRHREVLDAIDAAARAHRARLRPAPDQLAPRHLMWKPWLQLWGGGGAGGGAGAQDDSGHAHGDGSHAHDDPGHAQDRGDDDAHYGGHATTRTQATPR

[3] = Pharmacokinetic model: accumulation of E2MATE+EMATE, Example 3; set-up: species or system human
Protocol: As shown on FIG. 2, the accumulation ratio (Racc) based on the accumulation between two doses during one week time could be calculated. […] This could be achieved for example by the administration of 1 mg every 3 days or 2 mg per week (FIG. 2B).

[4] = test system: endometriosis-like lesion; details: daily oral dose of 0.5 or 1 mg/kg for 21 days, cited from earlier work

Compound: C[C@]12CC[C@@H]3c4ccc(OS(N)(=O)=O)cc4CC[C@H]3[C@@H]1CC[C@@H]2O [E2MATE, Estradiol-3-o-sulfamate]
- mean percentage inhibition of STS activity in PBMCs ([1]; Day 4): 90%
- percentage inhibition of STS activity in PBMCs ([1]; Day 113): 37%
- average inhibition of STS activity in PBMCs [1]: 82.6%
- mean maximal inhibition of STS activity in PBMCs [1]: 94.7%
- STS activity inhibition in the uterus or in induced lesions [2]: ≤ 36%
- accumulation ratio (Racc) of E2MATE+EMATE ([3]; Cmin 504 h versus Cmin 168 h, 4 mg/week during 4 weeks): about 2.7
- E2MATE dose necessary to maintain the blood levels reached after the loading period ([3]; after loading 4 mg/week during 4 weeks): 0.36 mg/day
- lesion weight and size ([4]; end of treatment): decreased
- histology of the uterus (indicative of some estrogenic activity) [4]: some stromal oedema was observed
- number of lesions [4]: without a reduction
